# Where a name gives a salt, the structure may show the parent alone. Read-outs that look alike come from different tables or passages of the source.
# Biological target: T1, rat VMAT2-His (Rattus norvegicus, UniProt Q01827)
# T1 construct: The ORF of rat VMAT2 was subcloned into a pFastBac vector; His; made in house; host or cells: Sf9 insect cells (baculovirus)
# Experiment: Differential scanning fluorimetry (DSF) with CPM dye: change of melting temperature of purified VMAT2
# Type: binding
# Settings: for ΔTm at 10 µM / ΔTm at 30 µM / ΔTm at 90 µM / ΔTm at 270 µM / ΔTm at 12 µM / ΔTm at 37 µM / ΔTm at 11 µM / ΔTm at 33 µM: read-out: ΔTm
# Experimental: To screen purified VMAT2 by DSF we expressed the rat VMAT2 protein, as VMAT2-His, in SF9 insect cells using the baculovirus expression system. The transporter was solubilized and purified in n-Dodecyl-β-D-maltoside (DDM)/cholesterol hemisuccinate (CHS) micelles by immobilized metal affinity chromatography (IMAC) and size exclusion chromatography (SEC). […] Screening was performed using DSF and the thiol-reactive dye 7-diethylamino-3-(4-maleimidophenyl)-4-methylcoumarin (CPM), an approach that monitors changes to the protein melting temperature (Tm) upon compound binding. Using CPM or other dyes, DSF-based assays have successfully been used in molecular-based screenings[34],[35]. […] DSF screening was performed in 384 well plates using the thiol-sensing dye 7-diethylamino-3-(4-maleimidophenyl)-4-methylcoumarin (CPM) (Merck). […] Protein melting curves were determined using a LightCycler 480 ii RT-PCR system (Roche), with a temperature ramp increasing from 25 to 95 °C at a rate of 2 °C/min. Data analysis was performed using an in-house software that automatically determines the protein midpoint melting temperature (Tm) based on the second derivative of the melting curves or using the HTSDSF explorer as described in ref. [58]. […] 6 μl of this mix was dispensed to each well of 384 well plates using a Multidrop™ Combi Reagent Dispenser (Thermo Scientific). […] All initial hits were then subjected to an initial validation in triplicates with a compound concentration of 200 μM and a ΔTm > 5× the standard deviation (SD) cut off. […] Processing of the data from the primary screening and the concentration-dependent validation was performed as reported.
# [1] = Table S1, primary hits, average change in melting temperature vs controls, triplicates
# [2] = Table S2 dose response, compound 10 µM
# [3] = Table S2 dose response, compound 30 µM
# [4] = Table S2 dose response, compound 90 µM
# [5] = Table S2 dose response, compound 270 µM
# [6] = Table S2 dose response, compound 0,12 µM
# [7] = Table S2 dose response, compound 0,37 µM
# [8] = Table S2 dose response, compound 1,11 µM
# [9] = Table S2 dose response, compound 3,33 µM
# T1 sequence (Q01827 whole entry): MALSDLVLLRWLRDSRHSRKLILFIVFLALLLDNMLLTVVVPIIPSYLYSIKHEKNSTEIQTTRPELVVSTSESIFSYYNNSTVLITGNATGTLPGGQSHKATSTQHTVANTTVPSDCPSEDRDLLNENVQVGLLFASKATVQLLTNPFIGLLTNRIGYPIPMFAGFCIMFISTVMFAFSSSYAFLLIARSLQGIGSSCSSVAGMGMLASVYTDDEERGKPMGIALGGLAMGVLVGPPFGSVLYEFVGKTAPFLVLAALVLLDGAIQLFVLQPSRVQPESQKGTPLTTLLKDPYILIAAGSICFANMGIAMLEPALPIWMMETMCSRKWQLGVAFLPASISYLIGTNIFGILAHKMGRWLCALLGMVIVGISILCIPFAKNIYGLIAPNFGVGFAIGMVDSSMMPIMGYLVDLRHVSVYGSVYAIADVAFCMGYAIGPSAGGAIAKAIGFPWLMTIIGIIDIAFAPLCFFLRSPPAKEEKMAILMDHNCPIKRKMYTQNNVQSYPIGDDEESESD
structure (smiles),measurement,setting,value
O=C(c1ccc(F)cc1)C1CCN(CCn2c(=O)[nH]c3ccccc3c2=O)CC1 [Ketanserin tartrate hydrate],ΔTm,[1],"3,12 ± 0,24 oC"
same,ΔTm at 10 µM,[2],1.16 °C
same,ΔTm at 30 µM,[3],1.17 °C
same,ΔTm at 90 µM,[4],0.95 °C
same,ΔTm at 270 µM,[5],2.18 °C
CC(CCc1ccccc1)NCC(O)c1ccc(O)c(C(N)=O)c1 (centres unmarked) [Labetalol hydrochloride],ΔTm,[1],"0,81 ± 0,07 oC"
same,ΔTm at 10 µM,[2],0.27 °C
same,ΔTm at 30 µM,[3],0.42 °C
same,ΔTm at 90 µM,[4],0.1 °C
same,ΔTm at 270 µM,[5],0.24 °C
Cc1cccc(C)c1NC(=O)CN1CCN(CCCC(c2ccc(F)cc2)c2ccc(F)cc2)CC1 [Lidoflazine],ΔTm,[1],"1,35 ± 0,18 oC"
same,ΔTm at 12 µM,[6],0.23 °C
same,ΔTm at 37 µM,[7],0.05 °C
same,ΔTm at 10 µM,[2],0.23 °C
same,ΔTm at 30 µM,[3],0.21 °C
same,ΔTm at 90 µM,[4],0.33 °C
same,ΔTm at 270 µM,[5],1.14 °C
same,ΔTm at 11 µM,[8],0.12 °C
same,ΔTm at 33 µM,[9],0.16 °C
OC(c1cc(C(F)(F)F)nc2c(C(F)(F)F)cccc12)C1CCCCN1 (centres unmarked) [Mefloquine hydrochloride],ΔTm,[1],"-11,15 ± 0,23 oC"
same,ΔTm at 12 µM,[6],-0.02 °C
same,ΔTm at 37 µM,[7],0.04 °C
same,ΔTm at 10 µM,[2],0.1 °C
same,ΔTm at 30 µM,[3],0.21 °C
same,ΔTm at 90 µM,[4],0.09 °C
same,ΔTm at 270 µM,[5],0.08 °C
same,ΔTm at 11 µM,[8],0 °C
same,ΔTm at 33 µM,[9],-0.11 °C
C1CCC(C(CC2CCCCN2)C2CCCCC2)CC1 (centres unmarked) [Perhexiline maleate],ΔTm at 10 µM,[2],-0.18 °C
same,ΔTm at 30 µM,[3],-0.27 °C
same,ΔTm at 90 µM,[4],-1.17 °C
same,ΔTm at 270 µM,[5],-3.23 °C
CN1CCC(=C2c3ccccc3Sc3ccccc32)CC1 [Pimethixene maleate],ΔTm at 10 µM,[2],0.15 °C
same,ΔTm at 30 µM,[3],-0.18 °C
same,ΔTm at 90 µM,[4],-0.14 °C
same,ΔTm at 270 µM,[5],-1.59 °C
COC(=O)[C@H]1[C@H]2C[C@@H]3c4[nH]c5cc(OC)ccc5c4CCN3C[C@H]2C[C@@H](OC(=O)c2cc(OC)c(OC)c(OC)c2)[C@@H]1OC [Reserpine],ΔTm at 10 µM,,13.5 °C
same,ΔTm at 11 µM,,13.6 °C
same,ΔTm at 12 µM,,13.7 °C
same,ΔTm at 30 µM,,13.9 °C
same,ΔTm at 33 µM,,13.6 °C
same,ΔTm at 37 µM,,13.7 °C
same,ΔTm at 90 µM,,14 °C
same,ΔTm at 270 µM,,13.7 °C
CC(C)(C)NC(=O)[C@@H]1C[C@@H]2CCCC[C@@H]2CN1C[C@@H](O)[C@H](Cc1ccccc1)NC(=O)[C@H](CC(N)=O)NC(=O)c1ccc2ccccc2n1 [Saquinavir mesylate],ΔTm at 12 µM,[6],-0.17 °C
same,ΔTm at 37 µM,[7],-0.28 °C
same,ΔTm at 10 µM,[2],-0.91 °C
same,ΔTm at 30 µM,[3],-0.7 °C
same,ΔTm at 90 µM,[4],-0.55 °C
same,ΔTm at 270 µM,[5],-1.64 °C
same,ΔTm at 11 µM,[8],-0.49 °C
same,ΔTm at 33 µM,[9],-0.65 °C
C#CCN(C)[C@H](C)Cc1ccccc1 [Selegiline hydrochloride],ΔTm at 10 µM,[2],0.3 °C
same,ΔTm at 30 µM,[3],0.19 °C
same,ΔTm at 90 µM,[4],0.28 °C
same,ΔTm at 11 µM,,0.31 °C
same,ΔTm at 12 µM,,0.33 °C
same,ΔTm at 33 µM,,0.32 °C
same,ΔTm at 37 µM,,0.38 °C
same,ΔTm at 270 µM,,0.36 °C
CCCc1nn(C)c2c(=O)[nH]c(-c3cc(S(=O)(=O)N4CCN(C)CC4)ccc3OCC)nc12 [Sildenafil],ΔTm,[1],"1,10 ± 0,14 oC"
same,ΔTm at 12 µM,[6],0.43 °C
same,ΔTm at 37 µM,[7],0.04 °C
same,ΔTm at 10 µM,[2],0.11 °C
same,ΔTm at 30 µM,[3],0.1 °C
same,ΔTm at 90 µM,[4],0.39 °C
same,ΔTm at 270 µM,[5],1.04 °C
same,ΔTm at 11 µM,[8],0.04 °C
same,ΔTm at 33 µM,[9],0.09 °C
CC(C)(C)c1ccc(C(O)CCCN2CCC(C(O)(c3ccccc3)c3ccccc3)CC2)cc1 (centres unmarked) [Terfenadine],ΔTm,[1],"-13,22 ± 0,13 oC"
same,ΔTm at 10 µM,[2],0.21 °C
same,ΔTm at 30 µM,[3],0.24 °C
same,ΔTm at 90 µM,[4],-0.01 °C
same,ΔTm at 270 µM,[5],-0.6 °C
CCSc1ccc2c(c1)N(CCCN1CCN(C)CC1)c1ccccc1S2.O=C(O)CC(O)C(=O)O.O=C(O)CC(O)C(=O)O [Thiethylperazine dimalate],ΔTm,11 µM,"-0,77 oC"
same,ΔTm,12 µM,"-0,61 oC"
same,ΔTm,33 µM,"-0,78 oC"
same,ΔTm,37 µM,"-0,58 oC"
same,ΔTm,270 µM,"-3,69 oC"
same,ΔTm,[2],"-1,01 oC"
same,ΔTm,[3],"-1,34 oC"
same,ΔTm,[4],"-2,15 oC"
CN1CCN(CCCN2c3ccccc3Sc3ccc(C(F)(F)F)cc32)CC1 [Trifluoperazine dihydrochloride],ΔTm,,"-6,15 ± 0, 08 oC"
same,ΔTm at 10 µM,,-0.69 °C
same,ΔTm at 30 µM,,-0.28 °C
same,ΔTm at 90 µM,,-0.23 °C
same,ΔTm at 270 µM,,-1.05 °C
CN(C)CCCN1c2ccccc2Sc2ccc(C(F)(F)F)cc21 [Triflupromazine hydrochloride],ΔTm,,"-4,15 ± 0, 03 oC"
same,ΔTm at 10 µM,,-0.1 °C
same,ΔTm at 30 µM,,-0.1 °C
same,ΔTm at 90 µM,,-0.84 °C
same,ΔTm at 270 µM,,-2.21 °C
